Reference: ChEMBL document CHEMBL1201862, “PubChem BioAssay data set” (2004)
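1) Cells in 96-well plates. 2) Compound, 48 h, 5 concentrations. 3) Linear interpolation between surrounding doses. 4) Unreached endpoint = highest concentration. GI50 is the concentration that inhibits growth by half.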 Activity calls are given as the source filed them. Rule as the data show it: active = GI50 up to about 1.1 µM and inactive = higher.

Columns and labels:
Assay in all cases: NCI anticancer screen, dose series, 48 h
[1] = system: UACC-62
[2] = system: HL-60
[3] = system: MOLT-4
[4] = system: DU-145
[5] = system: HCC 2998
[6] = system: UACC-257
[7] = system: UO-31
[8] = system: HCT-116
[9] = system: HOP-92
[10] = system: T47D
[11] = system: KM12
[12] = system: BT-549
[13] = system: SF-295
[14] = system: ACHN
[15] = system: IGROV-1
[16] = system: NCI-H522
[17] = system: RPMI-8226
[18] = system: Malme-3M
[19] = system: Hs-578T

Row | SMILES | GI50 [1] | GI50 [2] | GI50 [3] | GI50 [4] | GI50 [5] | GI50 [6] | GI50 [7] | GI50 [8] | GI50 [9] | GI50 [10] | GI50 [11] | GI50 [12] | GI50 [13] | GI50 [14] | GI50 [15] | GI50 [16] | GI50 [17] | GI50 [18] | GI50 [19]
1 | CCOC(=O)/C(=C\NC(N)=S)C(=O)c1ccccc1 | > 100 µM (inactive) | > 100 µM (inactive) | > 100 µM (inactive) | > 100 µM (inactive) | > 100 µM (inactive) | > 100 µM (inactive) | > 100 µM (inactive) | > 100 µM (inactive) | > 100 µM (inactive) | > 100 µM (inactive) | > 100 µM (inactive) | > 100 µM (inactive) | > 100 µM (inactive) | > 100 µM (inactive) | > 100 µM (inactive) |  |  |  | 
2 | COC(=O)CCN1CCN(CCO)CC1C (stereo unspecified) | > 10 µM (inactive) | > 10 µM (inactive) | > 10 µM (inactive) | > 10 µM (inactive) | > 10 µM (inactive) | > 10 µM (inactive) | > 10 µM (inactive) | > 10 µM (inactive) |  | > 10 µM (inactive) | > 10 µM (inactive) |  | > 10 µM (inactive) | > 10 µM (inactive) | > 10 µM (inactive) | > 10 µM (inactive) | > 10 µM (inactive) | > 10 µM (inactive) | > 10 µM (inactive)
3 | CC1(C)c2ccccc2C(O)C12CCC(=O)CC2 (stereo unspecified) | > 100 µM (inactive) | > 100 µM (inactive) |  | > 100 µM (inactive) | > 100 µM (inactive) | > 100 µM (inactive) | > 100 µM (inactive) | 9.2 µM (inactive) | > 100 µM (inactive) | > 100 µM (inactive) | > 100 µM (inactive) |  | > 100 µM (inactive) | > 100 µM (inactive) | > 100 µM (inactive) | > 100 µM (inactive) | > 100 µM (inactive) | > 100 µM (inactive) | > 100 µM (inactive)
4 | O=C(O)CCC(c1ccccc1)(c1ccccc1)c1ccccc1 | 27.4 µM (inactive) | 37.2 µM (inactive) | 33.9 µM (inactive) | 17.2 µM (inactive) | 32.4 µM (inactive) | 37 µM (inactive) | 38.9 µM (inactive) |  | 13.8 µM (inactive) | 0.647 µM (active) | 51.1 µM (inactive) |  | 50.7 µM (inactive) | 31 µM (inactive) |  |  | 27 µM (inactive) | > 100 µM (inactive) | 29.9 µM (inactive)
5 | O=c1c(C(c2ccco2)c2c(O)oc3ccccc3c2=O)c(O)oc2ccccc12 | 25.9 µM (inactive) | 67.5 µM (inactive) | 25.6 µM (inactive) | > 100 µM (inactive) | 26.5 µM (inactive) | 23.4 µM (inactive) | 25.7 µM (inactive) | 78 µM (inactive) | 25.5 µM (inactive) | 43.3 µM (inactive) | > 100 µM (inactive) |  |  | 27.1 µM (inactive) | 17.8 µM (inactive) | 19.5 µM (inactive) | 26.1 µM (inactive) | 20.5 µM (inactive) | 51.1 µM (inactive)
6 | C=C(C)[C@@H]1CC[C@]2(CO)CC[C@]3(C)[C@H](CC[C@@H]4[C@@]5(C)CC[C@H](O)C(C)(C)[C@@H]5CC[C@]43C)[C@@H]12 [BETULIN] |  | 34 µM (inactive) | 32.4 µM (inactive) | 84.3 µM (inactive) |  | 23.3 µM (inactive) | 11.1 µM (inactive) | 30.8 µM (inactive) | 16.7 µM (inactive) | 61.4 µM (inactive) | 9.71 µM (inactive) | 17.6 µM (inactive) | 14 µM (inactive) | 11.1 µM (inactive) | 34.8 µM (inactive) | 20.4 µM (inactive) |  | 52.5 µM (inactive) | 
